ChEMBL document CHEMBL5126592, “Design, synthesis and activity against drug-resistant bacteria evaluation of C-20, C-23 modified 5-O-mycaminosyltylonolide derivatives” (Eur J Med Chem, 2022)
Converted amounts (≈) assume the structure as drawn.

What was measured:
Format in all cases: functional
Conditions in all cases: time 16-20 hrs
Staphylococcus aureus = test: Antibacterial activity against Staphylococcus aureus ATCC 25923 incubated for 16 to 20 hrs by broth microdilution method
Escherichia coli = test: Antibacterial activity against Escherichia coli ATCC 25922 incubated for 16 to 20 hrs by broth microdilution method
Cronobacter sakazakii = test: Antibacterial activity against Cronobacter sakazakii ATCC 29544 incubated for 16 to 20 hrs by broth microdilution method
Klebsiella pneumoniae = test: Antibacterial activity against Klebsiella pneumoniae ATCC 13883 incubated for 16 to 20 hrs by broth microdilution method

| Compound | MIC (Staphylococcus aureus) [µg/mL] | MIC (Escherichia coli) [µg/mL] | MIC (Cronobacter sakazakii) [µg/mL] | MIC (Klebsiella pneumoniae) [µg/mL] |
| --- | --- | --- | --- | --- |
| CC[C@H]1OC(=O)C[C@@H](O)[C@H](C)[C@@H](O[C@@H]2O[C@H](C)[C@@H](O)[C@H](N(C)C)[C@H]2O)[C@@H](CCN(Cc2ccc(C(C)C)cc2)Cc2cn(-c3cnc4ccccc4c3)nn2)C[C@@H](C)C(=O)/C=C/C(C)=C/[C@@H]1CO | 0.5 (≈ 0.532 µM) | 16 (≈ 17 µM) | 32 (≈ 34.1 µM) | 32 (≈ 34.1 µM) |
| CC[C@H]1OC(=O)C[C@@H](O)[C@H](C)[C@@H](O[C@@H]2O[C@H](C)[C@@H](O)[C@H](N(C)C)[C@H]2O)[C@@H](CCN(Cc2ccccc2)Cc2cn(-c3cnc4ccccc4c3)nn2)C[C@@H](C)C(=O)/C=C/C(C)=C/[C@@H]1CN(C)C | 1 (≈ 1.08 µM) | 8 (≈ 8.66 µM) | 16 (≈ 17.3 µM) | 4 (≈ 4.33 µM) |
| CC[C@H]1OC(=O)C[C@@H](O)[C@H](C)[C@@H](O[C@@H]2O[C@H](C)[C@@H](O)[C@H](N(C)C)[C@H]2O)[C@@H](CCN(Cc2ccc(N(C)C)cc2)Cc2cn(-c3cnc4ccccc4c3)nn2)C[C@@H](C)C(=O)/C=C/C(C)=C/[C@@H]1CI | 4 (≈ 3.81 µM) | 32 (≈ 30.5 µM) | 32 (≈ 30.5 µM) | 16 (≈ 15.2 µM) |
| CC[C@H]1OC(=O)C[C@@H](O)[C@H](C)[C@@H](O[C@@H]2O[C@H](C)[C@@H](O)[C@H](N(C)C)[C@H]2O)[C@@H](CCN(Cc2ccc(OC)cc2)Cc2cn(-c3cnc4ccccc4c3)nn2)C[C@@H](C)C(=O)/C=C/C(C)=C/[C@@H]1CN1CCCCC1 | 0.5 (≈ 0.503 µM) | 4 (≈ 4.02 µM) | 16 (≈ 16.1 µM) | 8 (≈ 8.05 µM) |
| CC[C@H]1OC(=O)C[C@@H](O)[C@H](C)[C@@H](O[C@@H]2O[C@H](C)[C@@H](O)[C@H](N(C)C)[C@H]2O)[C@@H](CCN(Cc2cn(-c3cnc4ccccc4c3)nn2)Cc2ccco2)C[C@@H](C)C(=O)/C=C/C(C)=C/[C@@H]1CN(CC)CC | 1 (≈ 1.06 µM) | 4 (≈ 4.25 µM) | 8 (≈ 8.49 µM) | 16 (≈ 17 µM) |
| CC[C@H]1OC(=O)C[C@@H](O)[C@H](C)[C@@H](O[C@@H]2O[C@H](C)[C@@H](O)[C@H](N(C)C)[C@H]2O)[C@@H](CCN(Cc2ccc(OC)cc2)Cc2cn(-c3cnc4ccccc4c3)nn2)C[C@@H](C)C(=O)/C=C/C(C)=C/[C@@H]1CI | 2 (≈ 1.93 µM) | 16 (≈ 15.4 µM) | 32 (≈ 30.9 µM) | 32 (≈ 30.9 µM) |
| CCCCN(CCCC)C[C@H]1/C=C(C)/C=C/C(=O)[C@H](C)C[C@H](CCN(C)Cc2cn(-c3cnc4ccccc4c3)nn2)[C@H](O[C@@H]2O[C@H](C)[C@@H](O)[C@H](N(C)C)[C@H]2O)[C@@H](C)[C@H](O)CC(=O)O[C@@H]1CC | 0.5 (≈ 0.536 µM) | 8 (≈ 8.58 µM) | 16 (≈ 17.2 µM) | 16 (≈ 17.2 µM) |
| CC[C@H]1OC(=O)C[C@@H](O)[C@H](C)[C@@H](O[C@@H]2O[C@H](C)[C@@H](O)[C@H](N(C)C)[C@H]2O)[C@@H](CCN(Cc2ccc(C(F)(F)F)cc2)Cc2cn(-c3cnc4ccccc4c3)nn2)C[C@@H](C)C(=O)/C=C/C(C)=C/[C@@H]1CN1CCCCCCC1 | 1 (≈ 0.943 µM) | 4 (≈ 3.77 µM) | 32 (≈ 30.2 µM) | 8 (≈ 7.54 µM) |
| CC[C@H]1OC(=O)C[C@@H](O)[C@H](C)[C@@H](O[C@@H]2O[C@H](C)[C@@H](O)[C@H](N(C)C)[C@H]2O)[C@@H](CCN(Cc2ccc(OC)cc2)Cc2cn(-c3cnc4ccccc4c3)nn2)C[C@@H](C)C(=O)/C=C/C(C)=C/[C@@H]1CN(CC)CC | 0.5 (≈ 0.509 µM) | 4 (≈ 4.07 µM) | 16 (≈ 16.3 µM) | 8 (≈ 8.14 µM) |
| CC[C@H]1OC(=O)C[C@@H](O)[C@H](C)[C@@H](O[C@@H]2O[C@H](C)[C@@H](O)[C@H](N(C)C)[C@H]2O)[C@@H](CCN(Cc2ccc(NC(C)=O)cc2)Cc2cn(-c3cnc4ccccc4c3)nn2)C[C@@H](C)C(=O)/C=C/C(C)=C/[C@@H]1CO | 2 (≈ 2.1 µM) | 32 (≈ 33.5 µM) | 32 (≈ 33.5 µM) | 32 (≈ 33.5 µM) |
| CC[C@H]1OC(=O)C[C@@H](O)[C@H](C)[C@@H](O[C@@H]2O[C@H](C)[C@@H](O)[C@H](N(C)C)[C@H]2O)[C@@H](CCN(Cc2cn(-c3cnc4ccccc4c3)nn2)Cc2ccco2)C[C@@H](C)C(=O)/C=C/C(C)=C/[C@@H]1CN1CCC(O)CC1 | 4 (≈ 4.12 µM) | 8 (≈ 8.25 µM) | 16 (≈ 16.5 µM) | 16 (≈ 16.5 µM) |
| CC[C@H]1OC(=O)C[C@@H](O)[C@H](C)[C@@H](O[C@@H]2O[C@H](C)[C@@H](O)[C@H](N(C)C)[C@H]2O)[C@@H](CCN(Cc2ccccc2)Cc2cn(-c3cnc4ccccc4c3)nn2)C[C@@H](C)C(=O)/C=C/C(C)=C/[C@@H]1CN1CC(C)CC(C)C1 (stereo not given in full) | 4 (≈ 4.03 µM) | 16 (≈ 16.1 µM) | 16 (≈ 16.1 µM) | 16 (≈ 16.1 µM) |
| CCCN(C)C[C@H]1/C=C(C)/C=C/C(=O)[C@H](C)C[C@H](CCN(C)Cc2cn(-c3cnc4ccccc4c3)nn2)[C@H](O[C@@H]2O[C@H](C)[C@@H](O)[C@H](N(C)C)[C@H]2O)[C@@H](C)[C@H](O)CC(=O)O[C@@H]1CC | 0.5 (≈ 0.571 µM) | 8 (≈ 9.13 µM) | 16 (≈ 18.3 µM) | 8 (≈ 9.13 µM) |
| CC[C@H]1OC(=O)C[C@@H](O)[C@H](C)[C@@H](O[C@@H]2O[C@H](C)[C@@H](O)[C@H](N(C)C)[C@H]2O)[C@@H](CCN(Cc2cn(-c3cnc4ccccc4c3)nn2)Cc2ccco2)C[C@@H](C)C(=O)/C=C/C(C)=C/[C@@H]1CN1CCCCC1 | 0.25 (≈ 0.262 µM) | 8 (≈ 8.38 µM) | 32 (≈ 33.5 µM) | 32 (≈ 33.5 µM) |
| CC[C@H]1OC(=O)C[C@@H](O)[C@H](C)[C@@H](O[C@@H]2O[C@H](C)[C@@H](O)[C@H](N(C)C)[C@H]2O)[C@@H](CCN(Cc2ccc(N(C)C)cc2)Cc2cn(-c3cnc4ccccc4c3)nn2)C[C@@H](C)C(=O)/C=C/C(C)=C/[C@@H]1CO | 0.25 (≈ 0.266 µM) | 8 (≈ 8.51 µM) | 16 (≈ 17 µM) | 16 (≈ 17 µM) |
| CCc1ccc(CN(CC[C@H]2C[C@@H](C)C(=O)/C=C/C(C)=C/[C@H](CO)[C@@H](CC)OC(=O)C[C@@H](O)[C@H](C)[C@H]2O[C@@H]2O[C@H](C)[C@@H](O)[C@H](N(C)C)[C@H]2O)Cc2cn(-c3cnc4ccccc4c3)nn2)cc1 | 0.5 (≈ 0.54 µM) | 32 (≈ 34.6 µM) | 16 (≈ 17.3 µM) | 16 (≈ 17.3 µM) |
| CC[C@H]1OC(=O)C[C@@H](O)[C@H](C)[C@@H](O[C@@H]2O[C@H](C)[C@@H](O)[C@H](N(C)C)[C@H]2O)[C@@H](CCN(Cc2ccc(C(F)(F)F)cc2)Cc2cn(-c3cnc4ccccc4c3)nn2)C[C@@H](C)C(=O)/C=C/C(C)=C/[C@@H]1CN(CC)CC | 1 (≈ 0.98 µM) | 4 (≈ 3.92 µM) | 16 (≈ 15.7 µM) | 8 (≈ 7.84 µM) |
| CC[C@H]1OC(=O)C[C@@H](O)[C@H](C)[C@@H](O[C@@H]2O[C@H](C)[C@@H](O)[C@H](N(C)C)[C@H]2O)[C@@H](CCN(Cc2ccc([N+](=O)[O-])cc2)Cc2cn(-c3cnc4ccccc4c3)nn2)C[C@@H](C)C(=O)/C=C/C(C)=C/[C@@H]1CO | 0.25 (≈ 0.265 µM) | 32 (≈ 34 µM) | 32 (≈ 34 µM) | 32 (≈ 34 µM) |
| CC[C@H]1OC(=O)C[C@@H](O)[C@H](C)[C@@H](O[C@@H]2O[C@H](C)[C@@H](O)[C@H](N(C)C)[C@H]2O)[C@@H](CCN(Cc2ccc(OC)cc2)Cc2cn(-c3cnc4ccccc4c3)nn2)C[C@@H](C)C(=O)/C=C/C(C)=C/[C@@H]1CN(C)C | 1 (≈ 1.05 µM) | 8 (≈ 8.38 µM) | 32 (≈ 33.5 µM) | 8 (≈ 8.38 µM) |
| CC[C@H]1OC(=O)C[C@@H](O)[C@H](C)[C@@H](O[C@@H]2O[C@H](C)[C@@H](O)[C@H](N(C)C)[C@H]2O)[C@@H](CCN(Cc2ccc(Br)cc2)Cc2cn(-c3cnc4ccccc4c3)nn2)C[C@@H](C)C(=O)/C=C/C(C)=C/[C@@H]1CI | 4 (≈ 3.68 µM) | 32 (≈ 29.5 µM) | 16 (≈ 14.7 µM) | 32 (≈ 29.5 µM) |
